Measurements published in the NIST ThermoML archive (doi:10.1021/je900545v).
Numbers after ± are expanded uncertainties.

Columns and labels:
[1] = 298.15 K, 101 kPa, Liquid
[2] = xn = mol fraction of the nth substance listed; conditions: 298.15 K, 101 kPa, Liquid; for electrical conductivity: DDSJ-308A Conductometer
[3] = refractive index (Na D-line) (dimensionless); xn = mol fraction of the nth substance listed; conditions: 298.15 K, 101 kPa, Liquid

C=CCn1cc[n+](C)c1.[Cl-] [1-allyl-3-methylimidazolium chloride]
[1]
Conditions	mass density [kg/m3]	viscosity [mPa·s]
–	1166 ± 2.7	821 ± 310

Conditions	electrical conductivity [S/m]
[1], DDSJ-308A Conductometer	0.00695 ± 0.00069

C=CCn1cc[n+](C)c1.[Cl-] [1-allyl-3-methylimidazolium chloride] + O
Conditions	electrical conductivity, [2] [S/m]	mass density, [2] [kg/m3]	refractive index, [3]	viscosity, [2] [mPa·s]
x1 = 0.000171	0.0795 ± 0.0079	1005 ± 7.4	1.3329 ± 0.0051	0.8974 ± 0.049
x1 = 0.000362	0.169 ± 0.017	1007.5 ± 7.4	1.333 ± 0.0051	0.8946 ± 0.049
x1 = 0.000553	0.258 ± 0.026	1001 ± 7.3	1.3333 ± 0.0051	0.8979 ± 0.049
x1 = 0.000754	0.345 ± 0.035	1004.5 ± 7.4	1.3336 ± 0.0051	0.8954 ± 0.049
x1 = 0.001151	0.503 ± 0.05	1004 ± 7.4	1.334 ± 0.0051	0.9008 ± 0.049
x1 = 0.001575	0.665 ± 0.067	1004.7 ± 7.4	1.3346 ± 0.0051	0.9038 ± 0.049
x1 = 0.002478	0.969 ± 0.097	1003 ± 7.3	1.336 ± 0.0051	0.9234 ± 0.05
x1 = 0.003359	1.24 ± 0.12	1004.2 ± 7.4	1.3375 ± 0.0051	0.9356 ± 0.051
x1 = 0.004859	1.65 ± 0.17	1005 ± 7.3	1.34 ± 0.0051	0.9802 ± 0.053
x1 = 0.006386	2.66 ± 0.27	1006 ± 7.3	1.3421 ± 0.0051	0.9919 ± 0.054
x1 = 0.008102	3.02 ± 0.3	1007.6 ± 7.4	1.3452 ± 0.0051	1.043 ± 0.056
x1 = 0.009949	3.29 ± 0.33	1008.5 ± 7.3	1.347 ± 0.0051	1.061 ± 0.057
x1 = 0.01179	3.69 ± 0.37	1011.6 ± 7.4	1.3495 ± 0.0051	1.093 ± 0.058
x1 = 0.01373	3.94 ± 0.39	1016.5 ± 7.4	1.352 ± 0.0051	1.129 ± 0.06
x1 = 0.01765	4.65 ± 0.47	1017.2 ± 7.4	1.3574 ± 0.0051	1.193 ± 0.063
x1 = 0.02156	5.33 ± 0.53	1021.8 ± 7.4	1.3635 ± 0.0051	1.252 ± 0.066
x1 = 0.02565	5.97 ± 0.6	1024 ± 7.4	1.3676 ± 0.0051	1.322 ± 0.069
x1 = 0.02973	6.23 ± 0.62	1026 ± 7.4	1.373 ± 0.0051	1.394 ± 0.073
x1 = 0.03394	7.15 ± 0.72	1029.2 ± 7.4	1.3775 ± 0.0051	1.473 ± 0.076
x1 = 0.04442	6.83 ± 0.68	1040 ± 7.4	1.3888 ± 0.0051	1.677 ± 0.086
x1 = 0.05536	7.66 ± 0.77	1046.8 ± 7.4	1.3995 ± 0.005	1.9 ± 0.097
x1 = 0.06646	7.92 ± 0.79	1054.2 ± 7.4	1.4084 ± 0.005	2.166 ± 0.11
x1 = 0.07857	7.47 ± 0.75	1061.8 ± 7.4	1.4176 ± 0.005	2.475 ± 0.12
x1 = 0.09138	7.2 ± 0.72	1073 ± 7.4	1.4315 ± 0.005	3.118 ± 0.15
x1 = 0.1143	6.48 ± 0.65	1084.1 ± 7.3	1.4464 ± 0.005	3.867 ± 0.19
x1 = 0.1369	5.67 ± 0.57	1092 ± 7.2	1.4574 ± 0.005	4.806 ± 0.23
x1 = 0.1616	4.92 ± 0.49	1100 ± 7.1	1.4673 ± 0.005	5.974 ± 0.28
x1 = 0.1867	4.13 ± 0.41	1105.8 ± 6.9	1.4742 ± 0.005	7.441 ± 0.33
x1 = 0.211	3.91 ± 0.39	1110.2 ± 6.7	1.4831 ± 0.005	7.9 ± 0.35
x1 = 0.2245	3.82 ± 0.38	1108.9 ± 6.6	–	8.518 ± 0.37
x1 = 0.3233	2.63 ± 0.26	1127.8 ± 5.9	–	18 ± 0.72
x1 = 0.5083	0.00974 ± 0.00097	1132.8 ± 4.6	–	48 ± 2
x1 = 1	0.00695 ± 0.00069	1166 ± 2.7	–	821 ± 310
